One data set deals with PDE4. Kind of data set: Inhibition of PDE4 activity (cytosol from human neutrophils, [3H]cAMP hydrolysis). The format is biochemical. To be noted: 0.5 μM cAMP, Motapizone (1 μM) included to suppress PDE3 activity. As to the method: Method for Measuring Inhibition of PDE4 Activity
PDE4 activity was determined as described by Thompson et al. (Adv Cycl Nucl Res 10: 69-92, 1979) with some modifications (Bauer and Schwabe, Naunyn-Schmiedeberg's Arch Pharmacol 311: 193-198, 1980). At a final assay volume of 200 μl (96 well microtiter plates) the assay mixture contained 20 mM Tris (pH 7.4), 5 mM MgCl2, 0.5 μM cAMP, [^3H]cAMP (about 30,000 cpm/assay), the test compound and an aliquot of cytosol from human neutrophils which mainly contains PDE4 activity as described by Schudt et al. (Naunyn-Schmiedeberg's Arch Pharmacol 344: 682-690, 1991); the PDE3-specific inhibitor Motapizone (1 μM) was included to suppress PDE3 activity originating from contaminating platelets. Serial dilutions of the compounds were prepared in DMSO and further diluted 1:100 (v/v) in the assays to obtain the desired final concentrations of the inhibitors at a DMSO concentration of 1 % (v/v) which by itself only slightly affected PDE4 activity.
After preincubation for 5 min at 37° C., the reaction was started by the addition of substrate (cAMP) and the assays were incubated for further 15 min at 37° C. 50 μl of 0.2 N HCl was added to stop the reaction and the assays were left on ice for about 10 min. Following incubation with 25 μg 5′-nucleotidase (Crotalus atrox snake venom) for 10 min at 37° C., the assays were loaded on QAE Sephadex A-25 (1 ml bed volume). The columns were eluted with 2 ml of 30 mM ammonium formiate (pH 6.0) and the eluate was counted for radioactivity. Results were corrected for blank values (measured in the presence of denatured protein) which were below 5% of total radioactivity. […] The IC50-values for the compounds according to the invention for the inhibition of the PDE4 activity were determined from the concentration-inhibition curves by nonlinear-regression.
The inhibitory values determined for the compounds according to the invention follow from the following table A, which the numbers of the compounds correspond to the numbers of the examples.

What is called melting point is the temperature of the solid-liquid transition.

Turning to `COc1ccc(C2=NN(C3CC[N+]([O-])(CC(N)=O)CC3)C(=O)C3CCCCC23)cc1OC` (stereo not drawn) [compound 3], the melting point was 176 to 177 °C. In addition, the “Inhibition of PDE4 acitivity [measured as −logIC50 (mol/l)]” value in the data set on PDE4 worked out at 7.5.
`COc1ccc(C2=NN(C3CC[N+]([O-])(CC(N)=O)CC3)C(=O)C3CC=CCC23)cc1OC` [compound 1, 2-{4-[(4aS,8aR)-4-(3,4-Dimethoxy-phenyl)-1-oxo-4a,5,8,8a-tetrahydro-1H-phthalazin-2-yl]-1-oxy-piperidin-1-yl}-acetamide] gave a melting point of 159 to 161 °C. Also, the “Inhibition of PDE4 acitivity [measured as −logIC50 (mol/l)]” value with PDE4 is recorded as 8.31.
`COc1ccc(C2=NN(C3CC[N+]([O-])(CC(=O)NC(C)C)CC3)C(=O)C3CC=CCC23)cc1OC` [compound 2, 2-{4-[(4aS,8aR)-4-(3,4-Dimethoxy-phenyl)-1-oxo-4a,5,8,8a-tetrahydro-1H-phthalazin-2yl]-1-oxy-piperidin-1-yl}-N-isopropyl-acetamide] gave a melting point of 130 to 132 °C. Further, in the data set on PDE4, the “Inhibition of PDE4 acitivity [measured as −logIC50 (mol/l)]” value was 9.3.
